Experimental data reported in patent publication US4602018A, “Condensed as-triazine derivatives” (Egyt Gyogyszevegyeszeti Gyar, priority 1983, dated 1986).
Read-outs that look alike come from different tables or passages of the source.

Key:
Format in all cases: in vivo
[1] = Acute toxicity on mice; conditions: mouse, in vivo, po, 7 days observation
Protocol: (§1) The test is carried out on male and female white mice belonging to the CFLP strain and weighing 18-22 g. The test compound is administered orally and the animals are observed for a period of 7 days. In the groups for each dose half of the animals are male and the other half are female. The animals are kept in a plastic box (39×12×12 cm) on scrapings litter at room temperature. The mice receive standard fodder and tap water ad libitum. The toxicity data are determined by the method of Litchfield-Wilcoxon.
(§2) The test compound is administered in an aqueous solution.

[2] = test system: tetrabenazine ptosis; assay: Antagonism of tetrabenazine ptosis on mice, p.o.; conditions: for ED50: tetrabenazine 50 mg/kg i.p.
[3] = test system: tetrabenazine ptosis; assay: Antagonism of tetrabenazine ptosis on rats, p.o.
Protocol: (3) ANTAGONISM OF TETRABENAZINE PTOSIS, ON MICE AND RATS, P.O. […] The results are evaluated as follows: on the basis of all the measured data an average ptosis is calculated for each group and the deviation from the average of the control group is expressed in percent (inhibition). The ED50 values are calculated from the data thus obtained.

[4] = test system: reserpine ptosis; assay: Antagonism of reserpine ptosis on rats, p.o.; conditions: for ED50: reserpine 2.5 mg./kg. s.c.
Protocol: The animals showing ptosis are counted until the effect decreases. The evaluation is carried out as described in connection with the previous ptosis test (test 3).

[5] = test system: carrageenin oedema; assay: Antiinflammatory effect on rats (carrageenin paw oedema); conditions: for ED50: Rattus norvegicus, read-out: Oedema inhibitory effect ED50
Protocol: Into the planar surface of the hind leg of rats weighing 150-180 g. 0.1 ml. of 1% carrageenin is injected. The volume of the paw is determined before and 3 hours after the administration of the irritating agent with a plethysmometer. The animals are pre-treated with the test compound and the carrier (control), respectively, for an hour. Because of the different solubility properties Tween 80 as auxiliary agent is used.

[6] = test system: tremorine-induced tremor; assay: Antitremorine effect on mice
Protocol: 20 mg./kg. of tremorine are administered i.p. to mice whereupon after 45 minutes the induced characteristic tremor is registered. The test compounds are administered orally 1 hour before the addition of tremorine.

[7] = Acute toxicity on rats; conditions: rat, in vivo, po, 14 days observation
[8] = test system: aconitine-induced ECG changes; assay: animal or person; conditions: rats
Protocol: The test is carried out according to the modified method of Marmo et al. The test animals are narcotized with ethyl urethane (1.2 g./kg. i.p.). Aconitine is administered intravenously in the form of a bolus injection in a dose of 75 μg./kg. The changes of ECG are followed in standard II outlet 5 minutes after the administration of aconitine. The changes observed are evaluated with the aid of a scale from 0 to 5 points. The test compound is administered either intravenously 2 minutes before the addition of aconitine, or orally 1 hour before the aconitine administration.

[9] = test system: mice; assay: Acute toxicity on mice; conditions: p.o., 7 days observation, 10080 min
Protocol: as §1, §2

[10] = test system: rats; assay: Acute toxicity on rats; conditions: p.o., 14 days observation, 20160 min
[11] = Mus musculus, po, read-out: ED50
[12] = Rattus norvegicus, po, read-out: ED50
[13] = 0.1 ml. of 1% carrageenin, 3 hours, pre-treated for an hour
[14] = Rattus norvegicus, iv, i.v. 2 minutes before aconitine 75 μg./kg. i.v.
[15] = Rattus norvegicus, po, p.o. 1 hour before aconitine 75 μg./kg. i.v.

Structure (SMILES): CN(C)CCC=C1c2ccccc2CCc2ccccc21 [Amitriptyline, N,N-dimethyl-3-[dibenzo[a,d]-cycloheptadiene-5-ylidene]-propylamine, reference compound]
- LD50 at 168 h [1]: 225 mg/kg
- ED50 [2, 11]: 12 mg/kg
- Ther. index [3]: 46
- Ther. index [4]: 3.6
- ED50 [4, 12]: ~140 mg/kg

Structure (SMILES): Clc1ccc(-c2ncn[n+]3ccc4ccccc4c23)cc1 [Reference compound D, 1-(4-chloro-phenyl)-as-triazino[6,1-a]isochinolinium-bromide, reference compound]
- LD50 at 168 h [1]: 600 mg/kg
- ED50 [2, 11]: 3.2 mg/kg
- Ther. index [3]: 179
- ED50 [3, 12]: 5.6 mg/kg
- Ther. index [4]: 16.7
- ED50 [4, 12]: ~60 mg/kg
- Oedema inhibitory effect ED50 [5, 13]: no effect
- Antitremorine effect ED50 ([6]; p.o. 1 hour before tremorine 20 mg./kg. i.p.): inactive

Structure (SMILES): CCCCC1C(=O)N(c2ccccc2)N(c2ccccc2)C1=O [Phenylbutazon, 4-butyl-1,2-diphenyl-3,5-pyrazolidine-dione]
- Ther. index [5]: 5.3
- ED50 [5, 13]: ~90 mg/kg

Structure (SMILES): OC1(c2ccc(Cl)cc2)NC=N[n+]2ccc3ccccc3c21 (centres unmarked) [Compound A, 1-(4-chloro-phenyl)-1-hydroxy-1,2-dihydro-as-triazino[6,1-a]isoquinolinium-ethanesulfonate]
- LD50 at 168 h [1]: 410 mg/kg
- LD50 at 336 h [7]: 1300 mg/kg
- Ther. index [2]: 1367
- ED50 [2]: 0.3 mg/kg
- ED50 [3]: 0.3 mg/kg
- Ther. index [3]: 4333
- Ther. index [4]: 92.8
- ED50 [4, 12]: 14 mg/kg
- ED50 [8, 14]: 0.9 mg/kg
- ED50 [8, 15]: 40 mg/kg
- Ther. index [8]: 32.5
- Ther. index [5]: 53.1
- ED50 [5, 13]: 24.5 mg/kg

Structure (SMILES): CCN(CC)CC(=O)Nc1c(C)cccc1C [Lidocain, α-diethylamino-2,6-dimethyl-acetanilide, reference compound]
- ED50 [8, 14]: 4 mg/kg
- ED50 [8, 15]: 120 mg/kg
- Antiarrhythmial effect (in words) ([8]; i.v. and p.o.): inactive
- Antiarrhythmial effect (percent in parentheses) ([8]; p.o., at 120 mg./kg.): 3.5%

Structure (SMILES): OC1(c2ccc(Cl)cc2)NC=N[n+]2ccc3ccccc3c21 (centres unmarked) [Compound C, 1-(4-chloro-phenyl)-1-hydroxy-1,2-dihydro-as-triazino[6,1-a]isoquinolinium-bromide]
- LD50 [9]: 590 mg/kg
- LD50 [10]: about 1030 mg/kg
- Ther. index [2]: 203
- ED50 [2]: 2.9 mg/kg
- ED50 [3]: 5.4 mg/kg
- Ther. index [3]: 191
- Ther. index [4]: 49.0
- ED50 [4]: 21 mg/kg

Structure (SMILES): OC1(c2ccc(Cl)cc2)NC=N[n+]2ccc3ccccc3c21 (centres unmarked) [Compound B, 1-(4-chloro-phenyl)-1-hydroxy-1,2-dihydro-as-triazino[6,1-a]isoquinolinium-chloride]
- LD50 [9]: 560 mg/kg
- LD50 [10]: about 1100 mg/kg
- Ther. index [2]: 1867
- ED50 [2]: 0.3 mg/kg
- ED50 [3]: 1.0 mg/kg
- Ther. index [3]: 1100
- Ther. index [4]: 39.3
- ED50 [4]: 28 mg/kg
- Ther. index [8]: 27.5
- ED50 ([8]; i.v. 2 minutes before aconitine 75 μg./kg. i.v.): 1.6 mg/kg
- ED50 ([8]; p.o. 1 hour before aconitine 75 μg./kg. i.v.): 30 mg/kg
- Ther. index [6]: 93.3
- ED50 ([6]; Mus musculus, po, p.o. 1 hour before tremorine 20 mg./kg. i.p.): 6 mg/kg
